Measurements reported in article PMC10770036, “Novel dual inhibitors of PARP and HDAC induce intratumoral STING-mediated antitumor immunity in triple-negative breast cancer” (Cell Death & Disease, 2024).

Assays:
TNBC cells = experiment: Transwell migration assay; assay type: cell-based, human; conditions: 48 h, compared with the vehicle
Description: Cell migration and invasion assays were performed using Transwell chambers with 8 μm pores without Matrigel (for migration assay) or with Matrigel (for invasion assay).
Cell migration and invasion assays were performed using Transwell chambers with 8 μm pores (Corning) without Matrigel (for migration assay) or with Matrigel (for invasion assay). MDA-MB-436 and MDA-MB-231 cells were resuspended in serum-free Leibovitz’s L-15 medium and seeded in the upper chamber at a density of 12,000 cells/100 μL. The chambers were incubated in 24-well plates containing Leibovitz’s L-15 medium with 10% FBS and PARP/HDACi or DMSO. After 48 h, the cells were fixed with 4% paraformaldehyde and stained with crystal violet. The cells on the upper surface of the filters were removed by swabbing with a cotton swab, and the images were captured at 5× magnification under an inverted phase contrast microscope (Leica Microsystems).

[1] = test system: cGAS–STING signaling pathway; experiment: Western blot of cGAS–STING pathway activation; assay type: cell-based, human; conditions: MDA-MB-436 cells, 48 h
Description: (§1) Western blot analysis was performed as previously described, and all western blot analyses were performed at least three times.
(§2) Western blot analysis was performed as previously described. Briefly, whole cell or tissue lysates were prepared using ice-cold Nonidet P-40 buffer mixed with protease and phosphatase inhibitors (Roche, IN, USA) and centrifuged at 14,000 × g at 4 °C for 10 min. The protein lysates were fractionated by sodium dodecyl sulfate–polyacrylamide gel electrophoresis (SDS–PAGE) and transferred to polyvinylidene fluoride (PVDF) membranes (Merck, Darmstadt, Germany). Membranes were incubated in 1× TBST buffer containing 5% nonfat powdered milk at room temperature for 2 h. The indicated primary antibody was incubated with PVDF membranes, followed by a washing step using 1× TBST and a secondary antibody conjugated to HRP. Signal detection was carried out using the Western ECL Substrate kit (Bio-Rad, Hercules, CA, USA). […]

[2] = Body weight of tumor-bearing mice; assay type: in vivo
Source text: (§3) MDA-MB-436, MDA-MB-231, and 4T1 cells were orthotopically injected into the fat pads of 6- to 7-week-old female NOD-Prkdc^scid Il2rg^em1Smoc (M-NSG), BALB/c nude and BALB/c mice, respectively. Fourteen 6-week-old female MMTV-PyMT mice were divided into two groups. The […] in each group were littermates. All animal procedures were approved by the Institutional Animal Care and Use Committee at Shenzhen University.
(§4) MDA-MB-436 cells (5 × 10^6) were suspended in PBS and Matrigel (Corning) at a 1:1 ratio and orthotopically injected into the fat pads of 6- to 7-week-old female NOD-Prkdc^scid Il2rg^em1Smoc (M-NSG) mice from the Shanghai Model Organisms Center, Inc. MDA-MB-231 cells (5 × 10^6) were suspended in PBS orthotopically injected into the fat pads of 6- to 7-week-old female BALB/c nude mice from the Shanghai Model Organisms Center, Inc. 4T1 cells (1 × 10^6) were suspended in PBS and injected into the fat pads of 6- to 7-week-old […] BALB/c mice from GemPharmatech Co., Ltd. When the tumor size reached 100 mm^3, the mice were randomly divided into three treatment groups without blinding: B102 (15 mg/kg), B302 (50 mg/kg) or vehicle [10% N,N-dimethylacetamide (DMAC, Sangon Biotech) and 6% polyethylene glycol 12-hydroxystearate (Solutol HS-15, MedChem Express, Monmouth Junction, NJ, USA) in saline] treatment via an intraperitoneal injection once daily. […]

RAD51 = experiment: Western blot of RAD51 expression in TNBC cells; assay type: cell-based, human; conditions: 2.5 μM compared with the positive controls at 5 μM, 24 h
Description: as §1, §2

[3] = test system: MDA-MB-436, MDA-MB-231, and 4T1 cell-derived xenografts; experiment: Antitumor effect in tumor-bearing mice; assay type: in vivo; conditions: B102 15 mg/kg or B302 50 mg/kg, intraperitoneal, once daily, versus vehicle
Source text: as §3, §4

SMILES	migration of TNBC cells (TNBC cells)	activation of the cGAS–STING signaling pathway [1]	body weights of tumor-bearing mice ([2]; 50 mg/kg/d)	inhibitory effect on RAD51 (RAD51)	tumor growth [3]	body weights of tumor-bearing mice ([2]; 15 mg/kg/d)
Nc1cc(F)ccc1NC(=O)CCc1ccc(CN2CCN(C(=O)c3cc(Cc4n[nH]c(=O)c5ccccc45)ccc3F)CC2)cc1 [Compound B302]	considerably inhibited the migration	concentration-dependent activation	not obviously altered	–	–	–
Nc1cc(F)ccc1NC(=O)/C=C/c1ccc(CN2CCN(C(=O)c3cc(Cc4n[nH]c(=O)c5ccccc45)ccc3F)CC2)cc1 [Compound B102]	considerably inhibited the migration	–	–	more potent inhibitory effect on RAD51	robust inhibition of tumor growth at low doses	not obviously altered
